Reference: article PMC9993459, “A novel selective spleen tyrosine kinase inhibitor SKI-O-703 (cevidoplenib) ameliorates lupus nephritis and serum-induced arthritis in murine models” (Clinical and Experimental Immunology, 2022)
Entries after “also recorded” stand apart in the source; their conditions may differ.

How the values were obtained:
Syk = Syk (Homo sapiens, UniProt P43405); experiment: Kinase assay (LANCE Ultra TR-FRET), Syk; format: biochemical
Protocol: (§1) Kinase assays were conducted in 384-well plates using LANCE ultra 66 time-resolved fluorescence resonance energy transfer (TR-FRET) methods, according to the manufacturer’s instructions (Perkin-Elmer). In brief, each kinase was pre-incubated with a serially diluted compound for 30 min, incubated with ULight poly-GT peptide substrate and ATP for up to 1 h. Thirty minutes after adding Eu-labeled anti-phosphopeptides Ab diluted in LANCE Detection Buffer, LANCE signals were measured with an EnVision multilabel reader (Perkin-Elmer).

Jak2 = Jak2 (Homo sapiens, UniProt O60674); experiment: Kinase assay (LANCE Ultra TR-FRET), Jak2; format: biochemical
Protocol: as §1

RET = RET (Homo sapiens, UniProt P07949); experiment: Kinase assay (LANCE Ultra TR-FRET), RET; format: biochemical
Protocol: as §1

KOR = experiment: Kinase assay (LANCE Ultra TR-FRET), KOR; format: biochemical
Protocol: as §1

FLT3 = FLT3 (Homo sapiens, UniProt P36888); experiment: Kinase assay (LANCE Ultra TR-FRET), FLT3; format: biochemical
Protocol: as §1

Pyk2 = Pyk2 (Homo sapiens, UniProt Q14289); experiment: Kinase assay (LANCE Ultra TR-FRET), Pyk2; format: biochemical
Protocol: as §1

[1] = biological target: T1, phosphorylated Syk (p-Syk) in human CD14+ monocytes (Homo sapiens, UniProt P43405); experiment: p-Syk ELISA in IgG-stimulated human CD14+ monocytes (FcγR signal); format: cell-based
T1 construct: endogenous in cells; host or cells: Ramos (ATCC), THP-1 (ATCC), human CD14+ monocytes (Lonza)
Protocol: THP-1 and Ramos cell lines and human CD14^+ monocytes were purchased from the American Type Culture Collection (ATCC) and Lonza, respectively. After treatment with Syk inhibitors for 1 h, THP-1 cells and monocytes were stimulated for 15 min with 100 μg/ml human IgG (Invitrogen), and Ramos cells were stimulated with 2 μg/ml anti-human IgM monoclonal Ab (mAb) (Bathyl). Cells were lysed in RIPA buffer containing 1% NP-40, 1% sodium deoxycholate, 0.1% SDS, and a mixture of protease and phosphatase inhibitors (Thermo Scientific). The lysates were assayed by standard immunoblotting methods and ELISA. Primary Abs used for immunoblotting were anti-phospho-Syk ([…]), anti-phospho-Vav (Y174), anti-phospho-PLCγ1 (Y1217) and anti-phospho-BLNK (Y96) Abs (all from Cell Signaling). ELISAs to detect phospho-Syk (Y525/526) were performed according to the manufacturer’s protocol (Cell Signaling).
Ramos cells (A), human primary monocytes (B), and THP cells (C) were pretreated with inhibitors at the indicated concentrations and stimulated with anti-human IgM (A) and human IgG (B and C). […] The relative intensities of protein phosphorylation levels were quantitated with reference to each lane of β-actin control bands. (D) Ramos cells, human primary monocytes, and THP cells were treated as in A–C for 24 h and levels of phosphorylated Syk (p-Syk) were measured by ELISA.

Zap70 = biological target: T2, Zap70 (Homo sapiens, UniProt P43403); experiment: Immunoblotting of Zap70 phosphorylation in TCR-stimulated T cells; format: cell-based; settings: 0.3–10 μM
T2 construct: endogenous in cells; host or cells: human peripheral T cells sorted from PBMC, stimulated with anti-CD3 and anti-CD28
Protocol: (A) The stru cture of SKI-O-703. (B-D) Human per ipheral T cells sorted fro m human peripheral blood mononuclear cells (B and D) and mouse primary T cells sorted from spleen (C ) wer e stimulated with 5 µ g/ml anti- CD3 and 2 µ g/ml anti- CD28 m Abs in the presence or absence of inhibitors as indicated. Af ter one hour (B) and 24 h ours (C and D) of culture, cells we re assaye d
by immunoblotting (B), FA C S ( C), and ELISA (D).
of Zap70 and its downstream target PLCγ1. It’s effect on the suppression of IL-2 production

[2] = biological target: T3, phosphorylation of Syk in mouse primary B cells (Mus musculus, UniProt P48025); experiment: p-Syk by FACS in stimulated mouse primary B cells; format: cell-based; settings: BCR and CD40 stimulation
T3 construct: endogenous in cells; host or cells: mouse primary B cells (splenic CD19+ B cells of C57BL/6 mice)
Excerpt: Figure 1: in vitro inhibitory effects of SKI-O-592 and -703 on Syk in B cells and monocytes. Ramos cells (A), human primary monocytes (B), and THP cells (C) were pretreated with inhibitors at the indicated concentrations and stimulated with anti-human IgM (A) and human IgG (B and C). The cells were then lysed and assayed by immunoblotting methods. The relative intensities of protein phosphorylation levels were quantitated with reference to each lane of β-actin control bands. (D) Ramos cells, human primary monocytes, and THP cells were treated as in A–C for 24 h and levels of phosphorylated Syk (p-Syk) were measured by ELISA. (E) Mouse primary B cells were stimulated with anti-IgM mAb for 60 min in the presence or absence of SKI-O-703 and assayed for p-Syk by FACS. A representative FACS profile and data on the dose-response of mean fluorescence intensity (MFI) are shown. The data are representative of two independent experiments.

T2 sequence (P43403 whole entry): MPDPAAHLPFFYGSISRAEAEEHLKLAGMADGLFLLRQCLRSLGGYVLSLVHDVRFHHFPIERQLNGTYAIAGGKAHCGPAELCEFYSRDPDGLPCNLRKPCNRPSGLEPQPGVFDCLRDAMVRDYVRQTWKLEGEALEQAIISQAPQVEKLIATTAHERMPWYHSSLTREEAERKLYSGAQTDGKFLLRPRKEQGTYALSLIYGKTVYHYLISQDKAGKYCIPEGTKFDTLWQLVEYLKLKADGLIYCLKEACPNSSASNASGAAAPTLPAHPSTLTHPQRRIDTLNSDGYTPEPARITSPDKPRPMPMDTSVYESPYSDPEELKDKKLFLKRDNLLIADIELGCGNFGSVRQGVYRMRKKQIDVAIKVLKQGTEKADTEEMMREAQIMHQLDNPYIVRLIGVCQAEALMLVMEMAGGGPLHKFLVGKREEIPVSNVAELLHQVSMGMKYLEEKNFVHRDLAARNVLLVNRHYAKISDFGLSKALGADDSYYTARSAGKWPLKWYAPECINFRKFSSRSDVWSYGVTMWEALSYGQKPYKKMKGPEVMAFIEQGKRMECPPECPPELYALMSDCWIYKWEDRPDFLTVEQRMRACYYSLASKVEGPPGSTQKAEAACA
Chain of RET (P07949 29-1114, species assumed): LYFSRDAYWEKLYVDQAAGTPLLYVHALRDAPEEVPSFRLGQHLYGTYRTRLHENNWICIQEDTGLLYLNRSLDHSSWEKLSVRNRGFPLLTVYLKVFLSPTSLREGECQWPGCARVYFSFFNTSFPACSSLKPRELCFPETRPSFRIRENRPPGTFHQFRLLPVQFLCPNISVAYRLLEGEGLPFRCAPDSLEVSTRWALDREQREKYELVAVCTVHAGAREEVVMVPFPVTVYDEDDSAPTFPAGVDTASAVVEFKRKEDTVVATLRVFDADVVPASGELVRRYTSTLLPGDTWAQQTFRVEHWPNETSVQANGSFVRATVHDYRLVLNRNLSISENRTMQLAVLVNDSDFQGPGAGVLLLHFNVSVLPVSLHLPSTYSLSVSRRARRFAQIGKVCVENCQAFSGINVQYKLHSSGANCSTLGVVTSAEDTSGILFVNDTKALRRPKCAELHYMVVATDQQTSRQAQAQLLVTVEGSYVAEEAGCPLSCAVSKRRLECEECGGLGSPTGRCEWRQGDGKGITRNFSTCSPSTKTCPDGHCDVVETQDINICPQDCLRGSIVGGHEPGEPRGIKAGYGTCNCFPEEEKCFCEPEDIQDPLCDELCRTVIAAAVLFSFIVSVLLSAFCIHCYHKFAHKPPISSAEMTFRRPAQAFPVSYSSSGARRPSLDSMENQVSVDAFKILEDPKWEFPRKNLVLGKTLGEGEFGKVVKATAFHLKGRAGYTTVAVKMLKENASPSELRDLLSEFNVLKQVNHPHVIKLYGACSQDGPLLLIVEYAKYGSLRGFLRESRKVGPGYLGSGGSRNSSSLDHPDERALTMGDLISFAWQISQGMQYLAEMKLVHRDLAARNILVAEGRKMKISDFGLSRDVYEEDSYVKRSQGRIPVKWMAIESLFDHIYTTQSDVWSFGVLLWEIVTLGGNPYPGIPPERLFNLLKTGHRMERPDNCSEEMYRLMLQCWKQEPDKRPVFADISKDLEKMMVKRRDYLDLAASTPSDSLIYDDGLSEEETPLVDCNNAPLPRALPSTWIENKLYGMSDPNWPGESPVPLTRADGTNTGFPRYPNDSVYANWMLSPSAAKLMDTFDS
Chain of Jak2 (O60674 whole entry, species assumed): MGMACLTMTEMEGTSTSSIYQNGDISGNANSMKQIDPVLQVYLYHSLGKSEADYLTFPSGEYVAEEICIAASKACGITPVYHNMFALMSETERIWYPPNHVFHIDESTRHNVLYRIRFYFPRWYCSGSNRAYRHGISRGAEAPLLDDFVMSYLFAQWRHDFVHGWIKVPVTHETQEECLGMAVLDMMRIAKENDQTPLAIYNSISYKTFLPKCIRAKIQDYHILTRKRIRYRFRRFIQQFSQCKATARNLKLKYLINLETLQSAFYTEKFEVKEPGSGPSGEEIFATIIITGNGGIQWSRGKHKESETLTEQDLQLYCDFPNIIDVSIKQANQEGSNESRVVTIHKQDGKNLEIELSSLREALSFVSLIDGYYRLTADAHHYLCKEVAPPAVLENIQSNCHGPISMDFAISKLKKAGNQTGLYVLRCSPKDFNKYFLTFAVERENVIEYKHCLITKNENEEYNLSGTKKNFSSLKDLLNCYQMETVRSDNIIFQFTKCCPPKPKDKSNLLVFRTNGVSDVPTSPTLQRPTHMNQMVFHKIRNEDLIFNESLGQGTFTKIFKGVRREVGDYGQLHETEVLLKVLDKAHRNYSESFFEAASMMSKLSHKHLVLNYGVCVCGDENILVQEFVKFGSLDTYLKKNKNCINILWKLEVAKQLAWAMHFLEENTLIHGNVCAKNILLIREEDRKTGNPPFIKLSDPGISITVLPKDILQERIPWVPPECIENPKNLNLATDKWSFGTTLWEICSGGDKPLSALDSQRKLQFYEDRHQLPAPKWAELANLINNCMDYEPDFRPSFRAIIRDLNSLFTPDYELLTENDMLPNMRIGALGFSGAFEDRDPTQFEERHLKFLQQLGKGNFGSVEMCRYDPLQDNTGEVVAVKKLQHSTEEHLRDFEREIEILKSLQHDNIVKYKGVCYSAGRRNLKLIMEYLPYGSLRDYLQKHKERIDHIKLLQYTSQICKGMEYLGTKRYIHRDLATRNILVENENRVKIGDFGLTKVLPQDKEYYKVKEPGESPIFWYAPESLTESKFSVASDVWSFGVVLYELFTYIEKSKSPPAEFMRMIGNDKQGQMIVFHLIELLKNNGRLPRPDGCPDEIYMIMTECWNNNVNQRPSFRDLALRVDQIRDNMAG
Chain of FLT3 (P36888 27-993, species assumed): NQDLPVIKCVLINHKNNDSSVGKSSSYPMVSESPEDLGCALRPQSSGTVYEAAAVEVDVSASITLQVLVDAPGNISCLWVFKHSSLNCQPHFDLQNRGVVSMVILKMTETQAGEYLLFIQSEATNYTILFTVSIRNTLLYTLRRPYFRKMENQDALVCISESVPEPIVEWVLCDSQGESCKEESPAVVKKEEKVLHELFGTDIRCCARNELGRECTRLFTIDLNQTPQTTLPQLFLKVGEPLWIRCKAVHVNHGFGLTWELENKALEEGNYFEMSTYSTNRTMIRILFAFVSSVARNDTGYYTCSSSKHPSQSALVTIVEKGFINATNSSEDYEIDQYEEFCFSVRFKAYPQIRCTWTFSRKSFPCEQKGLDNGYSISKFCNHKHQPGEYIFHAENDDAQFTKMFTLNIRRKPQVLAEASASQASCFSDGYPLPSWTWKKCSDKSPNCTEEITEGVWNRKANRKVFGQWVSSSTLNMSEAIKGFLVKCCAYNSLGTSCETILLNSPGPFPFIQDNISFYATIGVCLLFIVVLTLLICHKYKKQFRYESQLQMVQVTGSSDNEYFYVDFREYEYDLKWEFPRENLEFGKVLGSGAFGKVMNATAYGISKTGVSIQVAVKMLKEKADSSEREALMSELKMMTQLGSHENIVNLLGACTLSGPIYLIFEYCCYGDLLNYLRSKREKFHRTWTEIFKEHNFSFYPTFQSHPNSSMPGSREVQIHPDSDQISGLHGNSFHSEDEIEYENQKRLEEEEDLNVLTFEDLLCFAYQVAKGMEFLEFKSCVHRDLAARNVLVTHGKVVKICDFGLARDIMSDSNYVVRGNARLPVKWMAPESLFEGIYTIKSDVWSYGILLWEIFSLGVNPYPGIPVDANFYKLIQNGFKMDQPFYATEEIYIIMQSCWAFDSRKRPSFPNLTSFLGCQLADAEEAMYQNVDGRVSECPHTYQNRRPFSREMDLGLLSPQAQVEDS
Chain of Pyk2 (Q14289 whole entry, species assumed): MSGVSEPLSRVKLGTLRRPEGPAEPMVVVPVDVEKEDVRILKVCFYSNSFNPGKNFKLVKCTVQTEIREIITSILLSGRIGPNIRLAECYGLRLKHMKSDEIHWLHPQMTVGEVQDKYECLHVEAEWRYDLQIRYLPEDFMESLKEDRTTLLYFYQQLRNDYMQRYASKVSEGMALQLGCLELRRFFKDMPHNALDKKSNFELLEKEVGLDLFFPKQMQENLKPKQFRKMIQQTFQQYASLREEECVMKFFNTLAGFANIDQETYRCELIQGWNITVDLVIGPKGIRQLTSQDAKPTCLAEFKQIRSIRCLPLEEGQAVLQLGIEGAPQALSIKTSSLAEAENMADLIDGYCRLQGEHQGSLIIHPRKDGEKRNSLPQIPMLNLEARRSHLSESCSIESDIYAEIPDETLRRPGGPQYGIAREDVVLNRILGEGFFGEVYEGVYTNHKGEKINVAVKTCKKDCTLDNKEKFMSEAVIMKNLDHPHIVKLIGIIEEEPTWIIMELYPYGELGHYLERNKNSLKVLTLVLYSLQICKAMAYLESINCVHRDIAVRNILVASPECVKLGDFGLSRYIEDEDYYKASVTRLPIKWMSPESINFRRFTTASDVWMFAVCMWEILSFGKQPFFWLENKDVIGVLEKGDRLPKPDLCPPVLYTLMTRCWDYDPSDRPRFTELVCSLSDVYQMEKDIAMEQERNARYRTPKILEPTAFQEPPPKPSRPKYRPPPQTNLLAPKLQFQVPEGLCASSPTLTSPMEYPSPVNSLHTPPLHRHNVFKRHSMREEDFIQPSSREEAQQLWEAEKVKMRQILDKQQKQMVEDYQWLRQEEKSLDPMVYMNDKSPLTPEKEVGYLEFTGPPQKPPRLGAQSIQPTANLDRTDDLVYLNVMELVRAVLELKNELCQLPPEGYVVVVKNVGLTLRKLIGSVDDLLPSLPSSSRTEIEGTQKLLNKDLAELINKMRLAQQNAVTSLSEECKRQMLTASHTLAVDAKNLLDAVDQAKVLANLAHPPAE

Cc1nn(-c2ccnc(Nc3ccc4c(c3)c(C(=O)C3CC3)cn4C)n2)cc1CN1C[C@H](O)CO1 [SKI-O-592]
Ratio to Syk (Syk) (Syk; IC50 ratio to Syk): 1.0 | IC50 against all other kinases tested relative to Syk (Syk; fold higher than against Syk): 67- to 2753 fold | IC50 (Syk; kinase activity, TR-FRET): 6.2 nM | Potency as Syk kinase inhibitor relative to R406 (Syk; more potent than R406): approximately 9 fold | Ratio to Syk (Jak2) (Jak2; IC50 ratio to Syk): 302 | IC50 (Jak2; kinase activity, TR-FRET): 1860 nM | Ratio to Syk (RET) (RET; IC50 ratio to Syk): 67 | IC50 (RET; kinase activity, TR-FRET): 412 nM | Ratio to Syk (KOR) (KOR; IC50 ratio to Syk): 111 | IC50 (KOR; kinase activity, TR-FRET): 687 nM | Ratio to Syk (FLT3) (FLT3; IC50 ratio to Syk): 289 | IC50 (FLT3; kinase activity, TR-FRET): 1780 nM | Ratio to Syk (Pyk2) (Pyk2; IC50 ratio to Syk): 115 | IC50 (Pyk2; kinase activity, TR-FRET): 709 nM | IC50 [1]: 191 nM | Phosphorylation of Zap70 and its downstream target PLCγ1 (Zap70): did not inhib it phosphorylation; also recorded: failed to affect

CS(=O)(=O)O.CS(=O)(=O)O.Cc1nn(-c2ccnc(Nc3ccc4c(c3)c(C(=O)C3CC3)cn4C)n2)cc1CN1C[C@H](O)CO1 [SKI-O-703, (S)-cyclopropyl(5-((4-(4-((4-hydroxyisoxazolidin-2-yl)methyl)-3-methyl-1H-pyrazol-1-yl)pyrimidin-2-yl)amino)-1-methyl-1H-indol-3-yl)methanone dimesylate]
Phosphorylation of Syk in mouse primary B cells [2]: reduced the phosphorylation of Syk
